Experiments:
[1] = system: ORE1 and AtNAP expression; assay: Quantitative RT-PCR of ORE1 and AtNAP in mature leaves after ABA; assay type: in vivo, Arabidopsis; conditions: 20 μM ABA spray
Description: Northern blot and real-time PCR were performed as reported (18). For Northern blot analysis, the probe was labeled with the PCR-DIG Probe Synthesis Kit (Roche). RD29A-F (SEQ ID NO. 83) and PYL9-R (SEQ ID NO. 84) were used for the PCR. For real-time PCR, reactions were performed with iQ SYBR Green Supermix (BioRad). The primers used include SEQ ID NOs. 71 to 80. Quantitative RT-PCR was conducted on mature leaves of 4-wk-old Arabidopsis plants that were growing in soil and sprayed with 20 μM ABA.

Arabidopsis plants = assay: Osmotic potential measurements after ABA spray; assay type: in vivo; conditions: developing bud tissue, 20 μM ABA spray, 2 d
Description: Plant samples were collected in a plastic centrifuge tube filter (without membrane; Corning Costar Spin-X) and then, quick-frozen in liquid nitrogen. After thawing, the sap was collected by centrifuging at 16,000×g for 4 min to remove insoluble material. A 10-μL volume of cell sap was measured using a vapor pressure osmometer (Model 5200; Wescor). Solute concentration was converted to osmotic potential (Ψπ) using the van't Hoff law: Ψπ=−RTc, where c is the molar solute concentration (osmolality; moles kilogram-1), R is the gas constant (0.08314 L Bar mol−1 K−1), and T is the temperature in Kelvin.

[2] = system: pRD29A::PYL9 transgenic plants; assay: Drought resistance of pRD29A::PYL9 transgenic Arabidopsis with ABA treatment; assay type: in vivo; conditions: 10 μM ABA applied once after water withheld for 12 d, plants after flowering
Description: Soil water content percentage during drought treatment in Arabidopsis was measured as described (27). We used 591-mL pots (48-7214; 04.00 SQ TL TW; Myers Industries) with 130 g (˜62 g oven dry weight) Fafard Super-Fine Germinating Mix Soil (Sungro Horticultures) per pot. After being saturated with water, the total weight of the wet soil was ˜440 g per pot. Pots were covered with plastic film to reduce water loss from soil surface. Three-week-old plants (four plants per pot) were subjected to drought stress by withholding water. Plants were sprayed with 2 mL 10 μM ABA plus 0.2% Tween-20 per pot after water was withheld for 12 d. Soil water content percentage was computed as total weight minus dry soil weight divided by water weight before drought according to the work (27). For drought treatment on rice, we measured the relative water content using the Soil Temperature/Moisture Meter L99-TWS-1 (Shanghai Fotel Precise Instrument Co., Ltd) following the work (40). Before drought treatment, the mixed vermiculite and sandy soil (Zhongfang Horticulture Co.) for rice was saturated with water, and the relative soil water content before drought was set as 100%. Rice plants at the four-leaf stage were subjected to drought by withholding water for 14 d, and the relative soil water content after the drought treatment was ˜20%.

SAG12-LUC expression = assay: SAG12-LUC transient expression assay in Arabidopsis protoplasts; assay type: cell-based; conditions: snrk2.2/3/6 triple-mutant protoplasts, ABA treatment
Description: Assays for transient expression in protoplasts were performed as described (18). All steps were performed at room temperature. SAG12-LUC and ORE1L-LUC were used as the senescence-responsive reporters, and ZmUBQ-GUS was used as the internal control. After transfection, protoplasts were incubated in washing and incubation solution without ABA or with 5 μM ABA under light for 16 h.

Question: Which “expression of ORE1 and AtNAP” value [1] does the source give for `CC1=CC(=O)CC(C)(C)[C@@]1(O)/C=C/C(C)=C\C(=O)O` [ABA, abscisic acid] here?
Answer: The value was “induced”.

Question: What about the osmotic potential (Arabidopsis plants) of the same compound?
Answer: Its osmotic potential is “reduced”.

Question: And the drought resistance [2]?
Answer: The drought resistance was “significantly increased”.

Question: What about the SAG12-LUC expression (SAG12-LUC expression) of the same compound?
Answer: The SAG12-LUC expression was “not enhanced”.

Source: patent US10975384B2, “PYL9 and uses thereof” (PURDUE RESEARCH FOUNDATION, priority 2015, dated 2021)
